Patent US20180049996A1, “THERAPEUTIC AGENT FOR CHRONIC RESPIRATORY DISEASE AND COMPOSITION FOR INHIBITING CARDIAC FIBROSIS” (NIPPON HYPOX LABORATORIES INCORPORATED, priority 2015, published 2018)

Assays:
[1] = system: sputum excretion; test: Sputum excretion action (phenol red excretion from trachea sections, method of Engler et al.); type: in vivo, male ICR mice; conditions: ambroxol 250 mg/kg oral single dose; relative to negative control; significant increase
Description: The hydroquinone derivative of the present invention was orally administered to 8 week old male ICR mice in a single dose, and the sputum excretion action was evaluated according to the method of Engler et al. (Engler H, Szelenyi I, J.Pharmacol. Moth. 11, 151-157, 1984).
Specifically, the test was conducted as follows. The test material was orally administered to the mice in the control group and the test groups, i.e., an aqueous solution of 2% gum arabic was administered to the mice in the negative control group, and 2,3,5-trimethylhydroquinone-1-hexyl ether (HTHQ), the test substance, was orally administered to the mice in the HTHQ-administered groups at 100 mg/kg body weight, 200 mg/kg body weight and 400 mg/kg body weight, respectively. Ambroxol (a product from Sigma-Aldrich) was orally administered to the mice in the ambroxol administered group at 250 mg/kg body weight. Here, ambroxol is a substance having expectoration action and has been selected as a positive control substance. 30 minutes after the oral administration of the test material, saline in which phenol red (a product from Sigma-Aldrich) was dissolved at a concentration of 0.05 g/mL was intraperitoneally administered at 15 mL/kg. Then, 30 minutes after the administration of phenol red, the mice were euthanized by inhalation of carbon dioxide, and the tracheae were extirpated. Given sites of the extirpated tracheae were cut into sections of fixed size to obtain trachea sections. The obtained trachea sections were added to centrifugation tubes, and 1 mL of saline was added there, and the mixture was sonicated using a ultrasonic washing machine for 15 minutes. After the centrifugation of 5 minutes at 10000 rpm, 0.5 mL of a upper layer solution was dispensed to the centrifugation tubes and 0.05 mL of 1 N sodium hydroxide was added to the tubes. After stirring with a vortex mixer, 0.2 mL of a sample was dispensed to a 96 well plate, and absorbance was measured at 546 nm using a micro plate reader (a product from BioTek Instruments, Inc). The amounts of phenol red excreted from the trachea sections of the mice in the control group and test groups were calculated by extrapolating the measured absorbance to the standard curve based on the absorbance of phenol red reference standard ([…], 2.3 and 1.2 ng/mL). The amounts of phenol red excreted from the trachea sections were substituted in the following formula to calculate the sputum excretion ability of the test material. The formula to calculate the sputum excretion ability is as follows: “sputum excretion ability(%)={(A/B)−1}×100” wherein A is the amounts of phenol red of the test material administered groups (an average) and B is the amount of phenol red of the negative control group (an average).

[2] = system: Pulmonary Fibrosis Induced by Bleomycin; test: Body weight and relative weight of lungs, pulmonary fibrosis induced by bleomycin; type: in vivo, male SD rats
Description: (§1) Bleomycin is used to produce disease-model animals of interstitial pneumonia. The bleomycin and 2,3,5-trimethylhydroquinone-1-hexyl ether (HTHQ) as the hydroquinone derivative represented by the general formula (1) described above of the present invention were simultaneously administered to male SD rats of 10 week old after birth to examine the effect of the action. The test groups consisted of the control group to which sterile saline was administered; test group 1 to which bleomycin (7.5 mg/kg body weight) alone was administered; test group 2 to which bleomycin (7.5 mg/kg body weight) and HTHQ (50 mg/kg body weight/day) were administered in combination; and test group 3 to which bleomycin (7.5 mg/kg body weight) and HTHQ (200 mg/kg body weight/day) were administered in combination.
(§2) In test groups 1 to 3, bleomycin was orally administered in a single dose. In test groups 2 and 3, 2,3,5-trimethylhydroquinone-1-hexyl ether (HTHQ) was daily orally administered for 10 or 20 days starting from 24 h after the administration of bleomycin. In test group 1, olive oil, which was used as a solvent of HTHQ, was daily orally administered at 10 mL/kg/day starting from 24 h after the administration of bleomycin. The number of animals in each group was 16. 8 animals of each group were sacrificed on days 10 and 20 after the administration of bleomycin and measurement of body weight, lung autopsy, histopathologic examination of lungs and bronchoalveolar lavage examination were conducted.
The body weight of the rats in the control group increased over time during the test period. […] The weight of the interstitial tissue of lungs tends to increase and the relative weight of lungs tends to rise when the tissue fibroses. […] Thus, it was expected that the degree of the progression of pulmonary fibrosis of the rats in test groups 2 and 3, to which HTHQ was administered, was less than the rats in test group 1.

[3] = system: Pulmonary Fibrosis Induced by Bleomycin; test: Histopathologic examination of lungs, pulmonary fibrosis induced by bleomycin; type: in vivo, male SD rats; conditions: Test group 1: bleomycin 7.5 mg/kg alone
Description: as §1, §2
The main lung lesions observed in the rats in test group 1 (the bleomycin-single administration group) on day 10 after the administration were the peribronchial and peribronchiola enlargement of alveoli, the hyperplasia of the alveolar wall, the infiltration of monocytes and lymphocytes in alveolar walls and interstitial tissue, and the exudation of alveolar macrophage into alveolar spaces. These lesions were alleviated in rats in test groups 2 and 3 (the HTHQ-administered groups) compared to the tissue in test group 1.
The result of the histopathologic examination of lungs of the control group and the test groups on day 20 after the administration of bleomycin is shown in Table 1 below. “−” indicates “not found”, “+” indicates “mild”, “++” indicates “moderate”, and “+++” indicates “severe” in severity scores. In test group 1 (the bleomycin-single administration group), the hyperplasia and fibrosis of peribronchial and adjacent alveolar walls became remarkable compared to the tissue on day 10 after the administration and the morphology of alveolus almost disappeared due to the infiltration of lymphocytes and neutrophils. The alveolar macrophages infiltrated within alveolar spaces were buried in surrounding tissues.

[4] = system: Pulmonary Fibrosis Induced by Bleomycin; test: Bronchoalveolar lavage (BAL) examination, cell numbers, pulmonary fibrosis induced by bleomycin; type: in vivo, male SD rats
Description: as §1, §2
Bronchoalveolar lavage (BAL) examination was conducted on the rats in the control group and the test groups. When interstitial pneumonia developed, the infiltration of inflammatory cells occurs and thus the total cell number in BAL fluid increases. The total cell numbers on day 10 after the administration of bleomycin were as follows: 2×10^5 cells in the control group, 9×10^5 cells in test group 1 (the bleomycin-single administration group), 6.5×10^5 cells in test group 2 (the low-dose HTHQ-administered group, 50 mg/kg body weight), and 10.5×10^5 cells in test group 3 (the high-dose HTHQ-administered group, 200 mg/kg body weight), and thus the effect of HTHQ administration was not found on day 10 after the administration of bleomycin.
When interstitial pneumonia developed, the infiltration of alveolar macrophages to interstitial tissue occurs and thus the alveolar macrophage number in BAL fluid increases. The alveolar macrophage numbers on day 10 after the administration of bleomycin were as follows: 1.45×10^5 cells in the control group, 4.5×10^5 cells in test group 1 (the bleomycin-single administration group), 1.99×10^5 cells in test group 2 (the low-dose HTHQ-administered group), and 3.24×10^5 cells in test group 3 (the high-dose HTHQ-administered group), and thus the effect of HTHQ administration was not found on day 10 after the administration of bleomycin. However, on day 20 after the administration, while the alveolar macrophage number of the bleomycin-single administration group was 5.5×10^5 cells, the alveolar macrophage number of the low-dose HTHQ-administered group was 3×10^5 cells and the alveolar macrophage number of the high-dose HTHQ-administered group was decreased to 2×10^5 cells.
When interstitial pneumonia developed, the infiltration of inflammatory cells of neutrophils to interstitial tissue occurs and thus the neutrophil number in BAL fluid increases. The neutrophil numbers on day 10 after the administration of bleomycin were as follows: 1.04×10^4 cells in the control group, 2.28×10^5 cells in test group 1 (the bleomycin-single administration group), 1.44×10^5 cells in test group 2 (the low-dose HTHQ-administered group), and 5.83×10^5 cells in test group 3 (the high-dose HTHQ-administered group), and thus the effect of HTHQ was not found on day 10 after the administration of bleomycin. […]

[5] = system: Pulmonary Fibrosis Induced by Bleomycin; test: Gross pathology of lungs, pulmonary fibrosis induced by bleomycin; type: in vivo, male SD rats; conditions: Test group 1: bleomycin 7.5 mg/kg alone; day 20
Description: as §1
as §2, with “8 animals of each group were sacrificed on days 10 and 20 after the administration of bleomycin and measurement of body weight, lung autopsy, histopathologic examination of lungs and bronchoalveolar lavage examination were conducted.” left out

[6] = Test group 1: bleomycin 7.5 mg/kg alone, day 10
[7] = bleomycin 7.5 mg/kg alone, day 20

Nc1c(Br)cc(Br)cc1CN[C@H]1CC[C@H](O)CC1 [ambroxol, Ambroxol, reference compound]
sputum excretion ability [1]: 41.1%

bleomycin [reference compound]
body weight ([2]; test groups 1 to 3, bleomycin 7.5 mg/kg single dose, during the test period): gradually decreased | relative weight of lungs ([2]; test groups 1 to 3, bleomycin 7.5 mg/kg, compared to the control group, p<0.01): significantly increased | histopathologic findings of lungs ([3]; day 10): pulmonary fibrosis has progressed | Severity score: Alveolar space, Bleeding ([3]; day 20 after bleomycin): + | Severity score: Alveolar space, Macrophage accumulation ([3]; day 20 after bleomycin): +++ | Severity score: Alveolar space, Protein exudation ([3]; day 20 after bleomycin): +++ | Severity score: Alveolar wall, Fibroblast accumulation ([3]; day 20 after bleomycin): +++ | Severity score: Alveolar wall, Fibrosis of interstitial tissue ([3]; day 20 after bleomycin): +++ | Severity score: Alveolar wall, Interstitial edema ([3]; day 20 after bleomycin): + | Severity score: Alveolar wall, Mononuclear cell infiltration ([3]; day 20 after bleomycin): +++ | Severity score: Circumvascular region, Perivascular edema ([3]; day 20 after bleomycin): + | Severity score: Circumvascular region, Plasma cell infiltration ([3]; day 20 after bleomycin): + | Severity score: Peribronchial and peribronchiolar regions, Fibrosis of interstitial tissue ([3]; day 20 after bleomycin): +++ | Severity score: Peribronchial and peribronchiolar regions, Lymphoid follicle hyperplasia ([3]; day 20 after bleomycin): ++ | Severity score: Type II alveolar epithelial cell, Adenomatous hyperplasia ([3]; day 20 after bleomycin): ++ | Severity score: Type II alveolar epithelial cell, Atypia and dysplasia ([3]; day 20 after bleomycin): ++ | alveolar macrophage number in BAL fluid [4, 6]: 4.5×10^5 cells | lymphocyte number in BAL fluid [4, 6]: 2.72×10^5 cells | neutrophil number in BAL fluid [4, 6]: 2.28×10^5 cells | total cell number in BAL fluid [4, 6]: 9×10^5 cells | alveolar macrophage number in BAL fluid [4, 7]: 5.5×10^5 cells | lymphocyte number in BAL fluid [4, 7]: 2.09×10^5 cells | neutrophil number in BAL fluid [4, 7]: 4.97×10^5 cells | total cell number in BAL fluid [4, 7]: 12.8×10^5 cells | gross pathology of lungs [5]: delomorphous nodules as well as many dark red and light red ecchymoses were observed
